10 compounds from ChEMBL document CHEMBL4011590, “Structure-activity relationship studies on 3,5-dinitrophenyl tetrazoles as antitubercular agents” (Eur J Med Chem, 2017) can be followed below.

Structures are written as SMILES. ≈ marks a conversion by molar mass, not a printed value.

Common to all, as to format: functional
The subject of experiment [1] is Mycobacterium kansasii. Put plainly: Antimycobacterial activity against Mycobacterium kansasii isolate 6509/96 after 14 days by micromethod. The note with it: isolate 6509/96, 336 h.
For experiment [2], the system named is Mycobacterium avium. Description: Antimycobacterial activity against Mycobacterium avium CNCTC My 330/80 after 21 days by micromethod. To be noted: CNCTC My 330/80, 504 h.
Experiment [3] has as its system Mycobacterium kansasii. Put plainly: Antimycobacterial activity against Mycobacterium kansasii isolate 6509/96 after 21 days by micromethod. The note with it: isolate 6509/96, 504 h.
For experiment [4], the system named is Mycobacterium kansasii. Description: Antimycobacterial activity against Mycobacterium kansasii isolate 6509/96 after 7 days by micromethod. To be noted: isolate 6509/96, 168 h.
Experiment [5] deals with Mycobacterium tuberculosis. Description: Antimycobacterial activity against Mycobacterium tuberculosis H37Rv CNCTC My 331/88 after 21 days by micromethod. To be noted: H37Rv CNCTC My 331/88, 504 h.
The test system of experiment [6] is Mycobacterium kansasii. Put plainly: Antimycobacterial activity against Mycobacterium kansasii CNCTC My 235/80 after 14 days by micromethod. To be noted: CNCTC My 235/80, 336 h.
Experiment [7] relates to Mycobacterium kansasii. Put plainly: Antimycobacterial activity against Mycobacterium kansasii CNCTC My 235/80 after 21 days by micromethod. The note with it: CNCTC My 235/80, 504 h.
Experiment [8] has as its system Mycobacterium avium. Put plainly: Antimycobacterial activity against Mycobacterium avium CNCTC My 330/80 after 14 days by micromethod. To be noted: CNCTC My 330/80, 336 h.
Experiment [9] concerns Mycobacterium kansasii. Description: Antimycobacterial activity against Mycobacterium kansasii CNCTC My 235/80 after 7 days by micromethod. The note with it: CNCTC My 235/80, 168 h.
Experiment [10] has as its system Mycobacterium tuberculosis. Put plainly: Antimycobacterial activity against Mycobacterium tuberculosis H37Rv CNCTC My 331/88 after 14 days by micromethod. The note with it: H37Rv CNCTC My 331/88, 336 h.

As usually defined, the MIC99 is the lowest concentration that inhibits either 99% of growth or 99% of the strains tested, depending on the study. `O=[N+]([O-])c1cc(-c2nnn(CCCCSc3nnnn3-c3ccc(Cl)c(Cl)c3)n2)cc([N+](=O)[O-])c1`: the MIC99 worked out at 1 µM (≈ 0.537 µg/mL) in experiment [1]; 4 µM (≈ 2.15 µg/mL) in [2]; 1 µM (≈ 0.537 µg/mL) in experiment [3]; 0.5 µM (≈ 0.269 µg/mL) in experiment [4]; 0.25 µM (≈ 0.134 µg/mL) in experiment [5]; 1 µM (≈ 0.537 µg/mL) in experiment [6]. The MIC99 in experiment [7] came to 1 µM (≈ 0.537 µg/mL); in experiment [8], 2 µM (≈ 1.07 µg/mL); in experiment [9], 0.5 µM (≈ 0.269 µg/mL); in experiment [10] it was 0.25 µM (≈ 0.134 µg/mL).
Consider `COc1ccc(-n2nnnc2Sc2cc([N+](=O)[O-])cc([N+](=O)[O-])c2)cc1`, for which the MIC99 in [1] amounted to 4 µM (≈ 1.5 µg/mL); in experiment [2], 16 µM (≈ 5.99 µg/mL); in [3], 4 µM (≈ 1.5 µg/mL); in experiment [4] it was 2 µM (≈ 0.749 µg/mL); in experiment [5] it was 1 µM (≈ 0.374 µg/mL); in experiment [6] it was 4 µM (≈ 1.5 µg/mL). The MIC99 in experiment [7] was 4 µM (≈ 1.5 µg/mL); in [8], 8 µM (≈ 2.99 µg/mL); in experiment [9], 2 µM (≈ 0.749 µg/mL); in experiment [10] it was 1 µM (≈ 0.374 µg/mL).
Regarding `CCCCCCCCCCCCCCCCn1nnnc1SCn1nnc(-c2cc([N+](=O)[O-])cc([N+](=O)[O-])c2)n1`, the MIC99 in [1] is 16 µM (≈ 9.2 µg/mL); in [2], 250 µM (≈ 144 µg/mL); in experiment [3], 32 µM (≈ 18.4 µg/mL); in experiment [4] it was 8 µM (≈ 4.6 µg/mL); in experiment [5] it was 8 µM (≈ 4.6 µg/mL); in experiment [6] it was 32 µM (≈ 18.4 µg/mL). For the same compound, the MIC99 was found to be 32 µM (≈ 18.4 µg/mL) in experiment [7], 125 µM (≈ 71.8 µg/mL) in experiment [8], 16 µM (≈ 9.2 µg/mL) in [9] and 4 µM (≈ 2.3 µg/mL) in [10].
As for `O=[N+]([O-])c1cc(-c2nnn(CCCSc3nnnn3-c3ccc(Cl)c(Cl)c3)n2)cc([N+](=O)[O-])c1`, the MIC99 in experiment [1] was 0.5 µM (≈ 0.262 µg/mL); in experiment [2], 8 µM (≈ 4.19 µg/mL); in experiment [3] it was 0.5 µM (≈ 0.262 µg/mL); in [4] it was 0.25 µM (≈ 0.131 µg/mL); in experiment [5], 0.25 µM (≈ 0.131 µg/mL); in [6], 0.5 µM (≈ 0.262 µg/mL). The MIC99 in experiment [7] came to 0.5 µM (≈ 0.262 µg/mL); in experiment [8] it was 4 µM (≈ 2.09 µg/mL); in [9], 0.25 µM (≈ 0.131 µg/mL); in [10], 0.25 µM (≈ 0.131 µg/mL).
In the case of `COc1ccccc1-n1nnnc1SCn1nnc(-c2cc([N+](=O)[O-])cc([N+](=O)[O-])c2)n1`, the MIC99 in experiment [1] came out at 32 µM (≈ 14.6 µg/mL); in experiment [2], 32 µM (≈ 14.6 µg/mL); in [3], 32 µM (≈ 14.6 µg/mL); in [4], 32 µM (≈ 14.6 µg/mL); in experiment [5], 0.25 µM (≈ 0.114 µg/mL); in experiment [6] it was 32 µM (≈ 14.6 µg/mL). The MIC99 in experiment [7] is 32 µM (≈ 14.6 µg/mL); in experiment [8] it was 32 µM (≈ 14.6 µg/mL); in experiment [9], 32 µM (≈ 14.6 µg/mL); in experiment [10], 0.25 µM (≈ 0.114 µg/mL).
Take `COc1ccc(-n2nnnc2SCn2nnc(-c3cc([N+](=O)[O-])cc([N+](=O)[O-])c3)n2)cc1`: the MIC99 was determined as 0.5 µM (≈ 0.228 µg/mL) in experiment [1]; 1 µM (≈ 0.456 µg/mL) in experiment [2]; 1 µM (≈ 0.456 µg/mL) in experiment [3]; 0.25 µM (≈ 0.114 µg/mL) in experiment [4]; 0.5 µM (≈ 0.228 µg/mL) in experiment [5]; 1 µM (≈ 0.456 µg/mL) in experiment [6]. Also, the MIC99 in [7] was 2 µM (≈ 0.913 µg/mL); in [8], 1 µM (≈ 0.456 µg/mL); in experiment [9] it was 0.5 µM (≈ 0.228 µg/mL); in experiment [10], 0.25 µM (≈ 0.114 µg/mL).
Take `O=[N+]([O-])c1cc(Sc2nnnn2-c2ccccc2)cc([N+](=O)[O-])c1`: the MIC99 stood at 8 µM (≈ 2.75 µg/mL) in experiment [1]; 16 µM (≈ 5.51 µg/mL) in experiment [2]; 8 µM (≈ 2.75 µg/mL) in experiment [3]; 4 µM (≈ 1.38 µg/mL) in experiment [4]; 4 µM (≈ 1.38 µg/mL) in [5]; 8 µM (≈ 2.75 µg/mL) in experiment [6]. The MIC99 in experiment [7] was 16 µM (≈ 5.51 µg/mL); in [8], 16 µM (≈ 5.51 µg/mL); in experiment [9], 8 µM (≈ 2.75 µg/mL); in [10], 2 µM (≈ 0.689 µg/mL).
`CCCn1nnc(-c2cc([N+](=O)[O-])cc([N+](=O)[O-])c2)n1`: the MIC99 in [1] turned out to be 32 µM (≈ 8.9 µg/mL); in experiment [2], 62.5 µM (≈ 17.4 µg/mL); in [3] it was 32 µM (≈ 8.9 µg/mL); in experiment [4], 16 µM (≈ 4.45 µg/mL); in [5], 16 µM (≈ 4.45 µg/mL); in experiment [6] it was 32 µM (≈ 8.9 µg/mL). For the same compound, the MIC99 in [7] amounted to 32 µM (≈ 8.9 µg/mL); in experiment [8], 32 µM (≈ 8.9 µg/mL); in experiment [9], 16 µM (≈ 4.45 µg/mL); in experiment [10], 8 µM (≈ 2.23 µg/mL).
With `NNC(=O)c1ccncc1` [ISONIAZID], the MIC99 in experiment [1] is 4 µM (≈ 0.549 µg/mL); in [3] it was 4 µM (≈ 0.549 µg/mL); in [4], 4 µM (≈ 0.549 µg/mL); in [6], above 250 µM; in experiment [8], above 250 µM.
As for `CO[C@H]1/C=C/O[C@@]2(C)Oc3c(C)c(O)c4c(O)c(c(/C=N/N5CCN(C)CC5)c(O)c4c3C2=O)NC(=O)/C(C)=C\C=C\[C@H](C)[C@H](O)[C@@H](C)[C@@H](O)[C@@H](C)[C@H](OC(C)=O)[C@@H]1C` [RIFAMPIN], the MIC99 in experiment [1] was 0.125 µM (≈ 0.103 µg/mL); in experiment [6], 0.25 µM (≈ 0.206 µg/mL); in [8], 32 µM (≈ 26.3 µg/mL); in experiment [10], 0.25 µM (≈ 0.206 µg/mL).
